Measured values: patent US20080312435A1, “Imine Compound” (TAISHO PHARMACEUTICAL CO., LTD., priority 2004, published 2008)

Tests used:
human CB2 receptor = target: T1, human CB2 receptor (Homo sapiens, UniProt P34972); assay: Human CB2 receptor binding inhibition test ([3H]CP-55,940, CHO membrane fractions); conditions: [3H]CP-55,940, membrane fractions of CHO cells stably expressing human CB2 receptor, 25° C., 2 hours; read-out: CB2 IC50 (Inhibition of binding to human CB2 receptor)
T1 construct: expressed in transfected cells
T1 sequence (P34972 whole entry): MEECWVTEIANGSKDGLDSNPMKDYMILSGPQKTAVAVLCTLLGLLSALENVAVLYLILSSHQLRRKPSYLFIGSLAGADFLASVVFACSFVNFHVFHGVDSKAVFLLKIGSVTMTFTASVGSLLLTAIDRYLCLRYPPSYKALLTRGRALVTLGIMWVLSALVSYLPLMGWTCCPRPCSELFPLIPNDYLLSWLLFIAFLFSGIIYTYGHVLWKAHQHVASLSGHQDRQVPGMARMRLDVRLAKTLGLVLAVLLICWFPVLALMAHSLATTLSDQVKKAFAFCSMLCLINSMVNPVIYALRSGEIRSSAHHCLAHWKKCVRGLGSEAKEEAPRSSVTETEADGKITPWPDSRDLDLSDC
Description: Human CB2 Receptor Binding Inhibition Test
First, cDNA sequence (Munro et al., Nature, 1993, 365, 61-65) encoding a human CB2 receptor was inserted in the forward direction in an animal-cell expression vector, pTARGET Vector (manufactured by Promega) at a region downstream of a CMV promoter. Host cells CHO-DHFR(−) were transfected with the obtained expression vector with the aid of Lipofectamine (manufactured by Invitrogen) to obtain cells capable of stably expressing the CB2 receptor.
After the filtrate was washed with an assay buffer containing 0.1% bovine serum albumin, the radioactivity on the glass filter was measured by a liquid scintillation counter. Nonspecific binding was measured in the presence of 2.0 μM CP-55,940 (manufactured by Tocris). 50% inhibitory concentration (IC50 value) of the test compound for the specific binding was obtained.

Cn1c(C(C)(C)C)c/c(=N\C(=O)c2cccc(Cl)c2Cl)n1CC1CCCC1 [compound 484]
melting point: 168 to 169 °C
IC50 (human CB2 receptor): 2.7 nM

CCn1c(C)c(C(C)(C)C)s/c1=N\C(=O)c1ccccc1OC(F)(F)F [compound 153]
melting point: 104 to 105 °C
IC50 (human CB2 receptor): 17.8 nM

COc1ccc(OC)c(C(=O)/N=c2\sc(C(C)(C)C)c(C)n2CC2CC2)c1 [compound 234]
melting point: 83 to 85 °C
IC50 (human CB2 receptor): 0.7 nM

Cc1c(C(C)(C)C)s/c(=N\C(=O)c2ccc(F)c(Cl)c2F)n1CC1CC1 [compound 285]
melting point: 76 to 77 °C
IC50 (human CB2 receptor): 14.2 nM

Cc1ccc(F)c(C(=O)/N=c2\sc(C(C)(C)C)c(C)n2C)c1F [compound 144]
melting point: 140 to 142 °C
IC50 (human CB2 receptor): 4.3 nM

Cc1c(C(C)(C)C)s/c(=N\C(=O)c2ccccc2F)n1CC1CC1 [compound 185]
melting point: 182 to 183 °C
IC50 (human CB2 receptor): 11 nM

CCOCCn1c(C)c(C(C)(C)C)s/c1=N\C(=O)c1cccc(C(F)(F)F)c1 [Compound No. 352, 5-t-butyl-3-(2-ethoxyethyl)-4-methyl-2-(3-trifluoromethylbenzoyl)imino-2,3-dihydrothiazole]
melting point: 91 to 92 °C
IC50 (human CB2 receptor): 2.3 nM

Cc1c(C(C)(C)C)s/c(=N\C(=O)c2cc(C(F)(F)F)ccc2Cl)n1CC1CC1 [compound 257]
melting point: 100 to 102 °C
IC50 (human CB2 receptor): 1.3 nM

Cc1c(C(C)(C)C)s/c(=N/C(=O)c2cccnc2F)n1CC1CC1 [compound 300]
melting point: 83 to 84 °C
IC50 (human CB2 receptor): 15 nM

O=C(/N=c1\cccc(Cl)n1CC1CC1)c1cccc(C(F)(F)F)c1F [compound 35]
melting point: 81 to 83 °C
IC50 (human CB2 receptor): 3.4 nM

Cc1c(C(C)(C)C)s/c(=N\C(=O)c2ccccc2C(F)(F)F)n1C [compound 117]
melting point: 74 to 76 °C
IC50 (human CB2 receptor): 5.6 nM

Cc1s/c(=N\C(=O)c2c(F)cccc2C(F)(F)F)n(CC2CC2)c1C [compound 94]
melting point: 111 to 113 °C
IC50 (human CB2 receptor): 2.9 nM

CCOCCn1/c(=N/C(=O)c2cccc(C(F)(F)F)c2C)cc(C(C)(C)C)n1C [compound 489]
melting point: 132 to 133 °C
IC50 (human CB2 receptor): 6 nM

Cc1c(C(C)(C)C)s/c(=N\C(=O)c2ccccc2I)n1C [compound 122]
melting point: 83 to 85 °C
IC50 (human CB2 receptor): 8.9 nM

Cc1ccc(F)c(C(=O)/N=c2\sc(C(C)(C)C)c(C)n2CC2CC2)c1 [compound 239]
melting point: 117 to 119 °C
IC50 (human CB2 receptor): 2.4 nM

Cc1c(C(C)(C)C)s/c(=N\C(=O)c2cc(F)ccc2C(F)(F)F)n1CC1CC1 [compound 254]
melting point: 110 to 112 °C
IC50 (human CB2 receptor): 1.4 nM

Cc1cc/c(=N\C(=O)c2cccc(C(F)(F)F)c2F)n(CC2CC2)c1 [compound 24]
melting point: 118 to 120 °C
IC50 (human CB2 receptor): 7.5 nM

Cc1c(C(C)(C)C)s/c(=N\C(=O)c2cc(C(F)(F)F)ccc2N(C)C)n1CC1CC1 [compound 277]
melting point: 126 to 128 °C
IC50 (human CB2 receptor): 9 nM

Cc1c(Br)cccc1C(=O)/N=c1\sc(C(C)(C)C)c(C)n1C [compound 140]
melting point: 143 to 144 °C
IC50 (human CB2 receptor): 6.1 nM

Cc1c(C(=O)/N=c2\cc(C(C)(C)C)n(C)n2CC2CCC2)cccc1C(F)(F)F [compound 483]
melting point: 133 to 134 °C
IC50 (human CB2 receptor): 8.3 nM

Cc1ccn(CC2CC2)/c(=N/C(=O)c2cccc(C(F)(F)F)c2F)c1 [compound 23]
melting point: 81 to 83 °C
IC50 (human CB2 receptor): 8.9 nM

O=C(/N=c1\ccc(Cl)cn1CC1CC1)c1cccc(C(F)(F)F)c1F [compound 34]
melting point: 117 to 119 °C
IC50 (human CB2 receptor): 6.6 nM

CCOc1ccc(OCC)c(C(=O)/N=c2\sc(C(C)(C)C)c(C)n2CC2CC2)c1 [compound 238]
melting point: 97 to 99 °C
IC50 (human CB2 receptor): 4.4 nM

Cc1c(C(C)(C)C)s/c(=N\C(=O)c2ccc3nonc3c2)n1CC1CC1 [compound 320]
melting point: 139 to 141 °C
IC50 (human CB2 receptor): 6.2 nM

COc1ccc(Cl)cc1C(=O)/N=c1\sc(C(C)(C)C)c(C)n1C [compound 146]
melting point: 177 to 179 °C
IC50 (human CB2 receptor): 6.6 nM

Cc1c(C(C)(C)C)s/c(=N\C(=O)c2cccc(OC(F)(F)F)c2)n1CC1CC1 [compound 196]
melting point: 106 to 108 °C
IC50 (human CB2 receptor): 7.6 nM

Cc1s/c(=N\C(=O)c2cccc(Br)c2)n(CC2CC2)c1C [compound 77]
melting point: 159 to 160 °C
IC50 (human CB2 receptor): 19.3 nM

Cc1cccc(C)c1C(=O)/N=c1\sc(C(C)(C)C)c(C)n1CC1CC1 [compound 218]
melting point: 98 to 100 °C
IC50 (human CB2 receptor): 5.7 nM

CCc1ccccc1C(=O)/N=c1\sc(C)c(C)n1CC1CC1 [compound 71]
melting point: 150 to 152 °C
IC50 (human CB2 receptor): 5.9 nM

Cc1c(C(C)(C)C)s/c(=N\C(=O)c2ccccc2Br)n1C [compound 120]
melting point: 182 to 184 °C
IC50 (human CB2 receptor): 7.4 nM

Cc1s/c(=N\C(=O)c2cc(F)ccc2Cl)n(CC2CC2)c1C [compound 80]
melting point: 139 to 140 °C
IC50 (human CB2 receptor): 17.9 nM

Cc1ccc(C)c(C(=O)/N=c2\sc(C(C)(C)C)c(C)n2CC2CC2)c1 [compound 217]
melting point: 106 to 107 °C
IC50 (human CB2 receptor): 2.6 nM

Cc1s/c(=N\C(=O)c2cccc(Cl)c2F)n(CC2CC2)c1C [compound 79]
melting point: 109 to 111 °C
IC50 (human CB2 receptor): 8.4 nM

COc1ccc(Cl)cc1C(=O)/N=c1\sc(C)c(C)n1CC1CC1 [compound 97]
melting point: 121 to 123 °C
IC50 (human CB2 receptor): 3.3 nM

Cc1c(C(C)(C)C)s/c(=N\C(=O)C(C)(C)C)n1CC1CC1 [compound 330]
melting point: 102 to 104 °C
IC50 (human CB2 receptor): 13.8 nM

Cc1c(C(C)(C)C)s/c(=N\C(=O)c2nccnc2Cl)n1CC1CC1 [compound 305]
melting point: 115 to 116 °C
IC50 (human CB2 receptor): 3.7 nM

O=C(/N=c1\ccccn1CC1CCC1)c1cccc(C(F)(F)F)c1F [compound 12]
melting point: 93 to 94 °C
IC50 (human CB2 receptor): 13.3 nM

CCn1c(C)c(C(C)(C)C)s/c1=N\C(=O)c1ccc(F)cc1Br [compound 156]
melting point: 99 to 100 °C
IC50 (human CB2 receptor): 11.4 nM

Cc1c(C(C)(C)C)s/c(=N\C(=O)c2ccc(F)c(F)c2F)n1CC1CC1 [compound 282]
melting point: 82 to 84 °C
IC50 (human CB2 receptor): 14.5 nM

Cc1c(C(C)(C)C)s/c(=N\C(=O)c2cc(F)ccc2F)n1CC1CC1 [compound 221]
melting point: 170 to 172 °C
IC50 (human CB2 receptor): 15.6 nM

CCn1c(C)c(C(C)(C)C)s/c1=N\C(=O)c1cccc(C(F)(F)F)c1F [compound 165]
melting point: 97 to 99 °C
IC50 (human CB2 receptor): 4.3 nM

Cc1c(C(C)(C)C)s/c(=N\C(=O)c2cc(Cl)ncc2Cl)n1CC1CC1 [compound 307]
melting point: 110 to 112 °C
IC50 (human CB2 receptor): 1 nM

Cc1s/c(=N\C(=O)c2cc(F)c(F)cc2Cl)n(CC2CC2)c1C [compound 85]
melting point: 161 to 163 °C
IC50 (human CB2 receptor): 18.9 nM

Cc1c(C(C)(C)C)s/c(=N\C(=O)c2cc(Cl)ccc2Cl)n1C [compound 133]
melting point: 171 to 173 °C
IC50 (human CB2 receptor): 7.3 nM

Cc1c(C(C)(C)C)s/c(=N\C(=O)c2ccc(C#N)cc2)n1CC1CC1 [compound 210]
melting point: 125 to 126 °C
IC50 (human CB2 receptor): 15.7 nM

Cc1s/c(=N\C(=O)c2cc(C(F)(F)F)ccc2F)n(CC2CC2)c1C [compound 92]
melting point: 122 to 123 °C
IC50 (human CB2 receptor): 3.9 nM

Cc1c(C(C)(C)C)s/c(=N\C(=O)c2cc(I)ccc2F)n1CC1CC1 [compound 231]
melting point: 95 to 96 °C
IC50 (human CB2 receptor): 3 nM

COc1ccc(OC)c(C(=O)/N=c2\sc(C)c(C)n2CC2CC2)c1 [compound 88]
melting point: 124 to 126 °C
IC50 (human CB2 receptor): 17.8 nM

Cc1c(C(C)(C)C)s/c(=N\C(=O)c2cccc(OC(F)(F)C(F)F)c2)n1CC1CC1 [compound 198]
melting point: 109 to 111 °C
IC50 (human CB2 receptor): 2.7 nM

Cc1ccc(F)cc1C(=O)/N=c1\sc(C)c(C)n1CC1CC1 [compound 89]
melting point: 82 to 84 °C
IC50 (human CB2 receptor): 9.8 nM

Cc1cc(Cl)ccc1C(=O)/N=c1\sc(C)c(C)n1CC1CC1 [compound 90]
melting point: 124 to 125 °C
IC50 (human CB2 receptor): 6.5 nM

Cc1c(C(C)(C)C)s/c(=N\C(=O)c2cc(Br)ccc2F)n1CC1CC1 [compound 230]
melting point: 113 to 114 °C
IC50 (human CB2 receptor): 1.5 nM

CCn1c(C)c(C(C)(C)C)s/c1=N\C(=O)c1cc(F)ccc1C [compound 161]
melting point: 108 to 109 °C
IC50 (human CB2 receptor): 9.7 nM

Cc1c(C(C)(C)C)s/c(=N\C(=O)c2cc(Br)ccc2F)n1C [compound 132]
melting point: 144 to 145 °C
IC50 (human CB2 receptor): 15.7 nM

Cc1c(C(C)(C)C)s/c(=N\C(=O)c2cc(F)ccc2C(F)(F)F)n1C [compound 143]
melting point: 83 to 85 °C
IC50 (human CB2 receptor): 7.4 nM

COc1cccc(C(=O)/N=c2\sc(C(C)(C)C)c(C)n2CC2CC2)c1 [compound 194]
melting point: 108 to 109 °C
IC50 (human CB2 receptor): 19.1 nM

Cc1ccc(C(=O)/N=c2\sc(C(C)(C)C)c(C)n2CC2CC2)c(C)c1 [compound 216]
melting point: 100 to 101 °C
IC50 (human CB2 receptor): 1.7 nM

COCCn1c(C)c(C(C)(C)C)s/c1=N\C(=O)C(F)(F)C(F)(F)C(F)(F)F [compound 338]
melting point: 69 to 71 °C
IC50 (human CB2 receptor): 9.1 nM

Cc1ccc(C(=O)/N=c2\sc(C)c(C)n2CC2CC2)c(Br)c1 [compound 91]
melting point: 90 to 92 °C
IC50 (human CB2 receptor): 7.9 nM

Cc1c(C(C)(C)C)s/c(=N\C(=O)c2ccc(F)cc2F)n1CC1CC1 [compound 224]
melting point: 111 to 112 °C
IC50 (human CB2 receptor): 13 nM
